# Measured values taken from PMC4942781, “A sodium channel inhibitor ISTX-I with a novel structure provides a new hint at the evolutionary link between two toxin folds” (Scientific Reports, 2016).
# “Also recorded” adds a separate entry of the source. Bridge positions count the residues as written; N and C are the ends. Ends that are not written are not given here.
# Assays:
# [1] = tested on: TTX-s sodium channel; assay: Whole-cell patch clamp, TTX-s sodium currents in rat DRG neurons; format: cell-based
# Method: (§1) The effects of ISTX-I on voltage-gated ion channels were investigated in the dorsal root ganglion (DRG). DRG neurons were held at −80 mV for over 4 min to allow adequate equilibration between the micropipette solution and the cell interior, and then current traces were evoked using a 50 ms step depolarization to −10 mV every second.
# Figure 3 Effects of ISTX-I on voltage-gated ion channels in rat DRG neurons. […] (C) Dose-dependent inhibition of ISTX-I on the TTX-s Nav channel (n = 5). (D) Current-voltage (I-V) relationship for the TTX-s Nav channel currents before (solid circles) and after (open circles) the application of 5 μM ISTX-I (n = 5). (E) Conductance–voltage (G-V) relationship of the TTX-s Nav channel before (solid circles) and after (open circles) treatment with 5 μM ISTX-I (n = 5). (F) Steady-state inactivation of the TTX-s Nav channel currents before (solid circles) and after(open circles) the application of 10 μM ISTX-I (n = 5).
# Rat DRG cells were acutely dissociated from adult Sprague-Dawley rats[30]. Briefly, adult rats of either sex with body weights of approximately 200 g were killed by decapitation. The dorsal root ganglia were isolated quickly from the spinal cord and then transferred into Dulbecco’s modified Eagle’s medium (DMEM) containing trypsin I (0.15 mg/mL) and collagenase II (0.3 mg/mL) for incubation with an oscillation frequency of 200 rpm at 37 °C for 20 min. The trypsin inhibitor II-S (1 mg/mL) was added to terminate the reaction. The isolated DRG cells were split into 35 mm culture dishes with DMEM solution containing 10% fetal bovine serum (FBS) and were incubated in a CO2 incubator (5% CO2, 95% air, 37 °C) for 1–4 h before the patch-clamp experiment.
# DRG neurons with a large diameter (>[…]) and those with a relatively small diameter (<[…]) were chosen by measuring TTX-s and TTX-r currents, respectively. Meanwhile, TTX (final concentration at 100 nM) was used to separate TTX-r sodium currents from TTX-s sodium currents. Suction pipettes (2.0–4.0 MΩ) were made of borosilicate glass capillary tubes with two-step pulling on a vertical micropipette puller (PC-10, Narishige). Potassium, calcium, and sodium currents were recorded in experimental cells using whole-cell patch-clamp recordings at room temperature, which were performed with an HEK EPC10 patch-clamp amplifier. The P/4 protocol was used to subtract linear capacitive and leakage currents. Experimental data were acquired and analyzed using the programs patch master and Sigmaplot 9.0 (Sigma, USA). All of the data points represent the mean ± SE (n = the number of separate experimental cells examined). Dose-response curves were fitted using the following Hill logistic equation: y = 1 − (1 − fmax)/[1 + ([Tx]/IC50)^n] in which n is an empirical Hill coefficient and fmax is the fraction of current resistant to inhibition at high toxin (Tx) concentrations.
# Electrophysiological studies.
# Currents were recorded from experimental cells using whole-cell patch clamptechnique at room temperature (22–25 °C). The patch pipettes were fabricated from borosilicate glass tubing using a two-stage vertical microelectrode puller (PC-10, Narishige, Japan). After establishing the whole-cell recording configuration, the resting potential was held at −80 mV for at least 5 min to allow adequate equilibration between the micropipette solution and the cell interior. The micropipette solution of sodium currents for dorsal root ganglion neurons contained (in mM): 105 […]
# Ionic currents were filtered at 3 kHz and sampled at 20 kHz on EPC-9 patch clamp amplifier (HEKA, Lambrecht, Germany).
# Supplementary Figure legends
# Figure S1. Expression, purification and molecular mass determination of recombinant ISTX-I. A: Separation of ISTX-I by Sephadex G-50 gel filtration. […]
# protein molecular weight marker; lanes1&2, ISTX-I/pET-32a(+) uninduced and induced cells, respectively. B: The protein peak (indicated by an arrow) from […]
# [2] = tested on: potassium channel; assay: Whole-cell patch clamp, Kv currents in DRG neurons; format: cell-based, rat; details: 20 μM ISTX-I, 500 ms depolarized potential of +10 mV
# Method: Rat DRG cells were acutely dissociated from adult Sprague-Dawley rats[30]. Briefly, adult rats of either sex with body weights of approximately 200 g were killed by decapitation. The dorsal root ganglia were isolated quickly from the spinal cord and then transferred into Dulbecco’s modified Eagle’s medium (DMEM) containing trypsin I (0.15 mg/mL) and collagenase II (0.3 mg/mL) for incubation with an oscillation frequency of 200 rpm at 37 °C for 20 min. The trypsin inhibitor II-S (1 mg/mL) was added to terminate the reaction. […]
# (§2) DRG neurons with a large diameter (>[…]) and those with a relatively small diameter (<[…]) were chosen by measuring TTX-s and TTX-r currents, respectively. […] Potassium, calcium, and sodium currents were recorded in experimental cells using whole-cell patch-clamp recordings at room temperature, which were performed with an HEK EPC10 patch-clamp amplifier. […] Experimental data were acquired and analyzed using the programs patch master and Sigmaplot 9.0 (Sigma, USA). […]
# Currents were recorded from experimental cells using whole-cell patch clamptechnique at room temperature (22–25 °C). […]
# (pH 7.4). K+ currents were recorded using an internal solution containing the followings (in mM): KCl 140, MgCl2 2.5, HEPES 10, and EGTA 11 (pH 7.2). […]
# [3] = tested on: TTX-r sodium channel; assay: Whole-cell patch clamp, TTX-r sodium currents in rat DRG neurons; format: cell-based
# Method: as §1
# Figure 3 Effects of ISTX-I on voltage-gated ion channels in rat DRG neurons. […] (C) Dose-dependent inhibition of ISTX-I on the TTX-s Nav channel (n = 5). (D) Current-voltage (I-V) relationship for the TTX-s Nav channel currents before (solid circles) and after (open circles) the application of 5 μM ISTX-I (n = 5). […]
# as §2
# Currents were recorded from experimental cells using whole-cell patch clamptechnique at room temperature (22–25 °C). […] K+ currents were recorded using an internal solution containing the followings (in mM): KCl 140, MgCl2 2.5, HEPES 10, and EGTA 11 (pH 7.2). […]
sequence,measurement,setting,value
"LCSENGDCAADECCVDTVFEGDMVTRSCEKTTGNFTECPGLTPIA (disulfide 2-14, 8-28, 13-38) [ISTX-I]",effect on TTX-s sodium channels (summary),[1],specifically inhibited TTX-s sodium channels
same,Inhibition of TTX-s Nav channel currents,[1]; 1 μM ISTX-I (legend of Fig. 3A),Inhibition of TTX-s Nav channel currents
same,reduction of TTX-s sodium channel currents,"[1]; 2 μM ISTX-I, 50 ms step depolarization to −10 mV, held at −80 mV, room temperature",approximately 50%
same,change of conductance–voltage (G-V) relationship,"[1]; 5 μM ISTX-I, TTX-s, n = 5",No changes
same,shift of current–voltage (I-V) curve,"[1]; 5 μM ISTX-I, TTX-s, n = 5",No changes
same,"shift of steady-state inactivation curve, hyperpolarized direction","[1]; 10 μM ISTX-I, TTX-s, n = 5",approximately 11 mV
same,IC50,"[1]; Hill equation fit, 50 ms step to −10 mV from −80 mV, mean ± SE, n = 5",2500 ± 1400 nM
same,effect on potassium channels,[2],no obvious effects; also recorded: No effects were detected
same,effect on TTX-r sodium channels (summary),[3],not TTX-r sodium channels
same,effect on TTX-r sodium channel currents,"[3]; 10 μM ISTX-I, 100 nM TTX to separate TTX-r currents",no effect
